This is an account of results in patent US20180318311A1, “TRICYCLIC 2-QUINOLINONES AS ANTIBACTERIALS” (priority 2017, published 2018).

≈ marks a conversion by molar mass, not a printed value. Like-named read-outs stand apart in the source and are kept apart here.

Common to all, as to assay type: cell-based
Assay [1] deals with E. faecalis ATCC 29212 (NB04001). The experiment in a line: MIC by broth microdilution, E. faecalis NB04001. Conditions: Enterococcus faecalis, ATCC29212, CAMHB, 35° C., 20 hours, read-out: Antibacterial activity (MIC) NB04001. Here is the method: (§1) Bacterial isolates were cultivated from −80° C. frozen stocks by overnight passages at 35° C. in ambient air on Mueller-Hinton agar plates (MHA, Becton Dickinson, Franklin Lakes, NB) with the exception of S. pneumoniae which was grown overnight at 35° C. in the presence of 5% CO2 on blood agar plates (tryptic soy agar with 5% sheep blood (Thermo Scientific, Waltham, Mass.) . The following quality control and wild type strains were obtained from the American Type Culture Collection (ATCC; Rockville, Md.) and are coded in the Novartis strain collection as indicated: E. coli ATCC 25922 (NB27001), E. faecalis ATCC 29212 (NB04001), S. aureus ATCC 49951 (NB01006) and S. pneumoniae ATCC […] (NB07001). […] P. aeruginosa NB52019, obtained from Queen's University (Kingston, Ontario, Canada), is the wild-type PAO1 strain.
(§2) Minimal Inhibitory Concentrations (MIC) were determined by the broth microdilution method in accordance with Clinical and Laboratories Institute (CLSI) guidelines. In brief, fresh bacterial overnight cultures were re-suspended in sterile saline, adjusted to a 0.5 McFarland turbidity standard and then diluted to yield a final inoculum of approximately 5×10^5 colony-forming units (CFU)/mL. All bacterial suspensions were prepared in cation adjusted Mueller-Hinton Broth (CAMHB; Becton Dickinson, Franklin Lakes, N.J.;) with the exception of S. pneumoniae which was prepared in CAMHB supplemented with 5% lysed horse blood (Hardy Diagnostics, Santa Maria, Calif.). Two-fold serial dilutions of compounds were prepared in 100% dimethyl sulfoxide (DMSO) at 100-fold the highest final assay concentration; the resulting dilution series of compounds were diluted 1:10 with sterile water. Ten μL of the drug dilution series in 10% DMSO was transferred to microtiter wells and 90 μL of bacterial suspension was inoculated into the wells. All inoculated microdilution trays were incubated in ambient air at 35° C. for 20 hours. Following incubation, assay plates were read in a microtiter plate reader at 600 nm and visually inspected to confirm the MIC endpoint well with the OD value. The lowest concentration of the compound that prevented visible growth was recorded as the MIC (in μg/mL).
In general terms: In broth dilution the organism is exposed to a series of concentrations in liquid medium.

For assay [2], the system named is S. aureus NB01080 fluoroquinolone-resistant clinical isolate. Briefly: MIC by broth microdilution, S. aureus NB01080. Conditions: Staphylococcus aureus, CAMHB, 35° C., 20 hours, read-out: Antibacterial activity (MIC) NB01080. Here is the method:
as §1, §2

Assay [3] relates to E. coli ATCC 25922 (NB27001). The experiment in a line: MIC by broth microdilution, E. coli NB27001. Conditions: Escherichia coli, ATCC25922, CAMHB, 35° C., 20 hours, read-out: Antibacterial activity (MIC) NB27001. Here is the method:
as §1, §2

For assay [4], the system named is S. aureus ATCC 49951 (NB01006). Briefly: MIC by broth microdilution, S. aureus NB01006. Conditions: Staphylococcus aureus, ATCC49951, CAMHB, 35° C., 20 hours, read-out: Antibacterial activity (MIC) NB01006. Here is the method: as §1, §2
In assay [5] the test system is S. pneumoniae ATCC 25922 (NB07001). Briefly: MIC by broth microdilution, S. pneumoniae NB07001. Conditions: Streptococcus pneumoniae, read-out: Antibacterial activity (MIC) NB07001. Here is the method: as §1, §2
The test system of assay [6] is S. aureus NB01006-AVR005, gyrA (S84L), grlA (580F) and grlB (E471K). The experiment in a line: microbe, parasite or virus in culture. As to conditions: Staphylococcus aureus, 20 h, read-out: Antibacterial activity (MIC) NB01006-AVR005. Here is the method: as §1, §2
Assay [7] deals with P. aeruginosa NB52019, wild-type PAO1 strain. The experiment in a line: MIC by broth microdilution, P. aeruginosa NB52019. As to conditions: Pseudomonas aeruginosa, CAMHB, 35° C., 20 hours, read-out: Antibacterial activity (MIC) NB52019. As for the experimental part: as §1, §2
Setting [8] is: ATCC25922, S. pneumoniae, CAMHB supplemented with 5% lysed horse blood, 35° C., 20 hours.

For the compound `C[C@H]1COc2c(N3CCC(CNC4CC4)C3)c(F)cc3cc(C(=O)O)c(=O)n1c23` (mixture of isomers) [Example 1.11, (3S)-10-(3-((cyclopropylamino)methyl)pyrrolidin-1-yl)-9-fluoro-3-methyl-5-oxo-2,3-dihydro-5H-[1,4]oxazino[2,3,4-ij]quinoline-6-carboxylic acid], the MIC in assay [1] was 1 to 32 µg/mL; in assay [2], 1 to 32 µg/mL; in assay [3], 1 to 32 µg/mL; in assay [4] it was 1 to 32 µg/mL; in assay [5] (ATCC25922, 20 h) it was less than 1 µg/mL; in assay [6] it was greater than 32 µg/mL. Also, in assay [7], the MIC was greater than 32 µg/mL.
With `C[C@H]1COc2c(N3CC4C(N)C4C3)c(F)cc3cc(C(=O)O)c(=O)n1c23` (mixture of isomers) [Example 1.38, (3S)-10-(6-amino-3-azabicyclo[3.1.0]hexan-3-yl)-9-fluoro-3-methyl-5-oxo-2,3-dihydro-5H-[1,4]oxazino[2,3,4-ij]quinoline-6-carboxylic acid], the MIC in assay [1] is 1 to 32 µg/mL; in assay [2], 1 to 32 µg/mL; in assay [3], less than 1 µg/mL; in assay [4], less than 1 µg/mL; in assay [5] (ATCC25922, 20 h) it was 1 to 32 µg/mL; in assay [6] it was greater than 32 µg/mL. For the same compound, in assay [7], the MIC was 1 to 32 µg/mL.
In the case of `C[C@H]1COc2c(N3CCC(C4CC4N)CC3)c(F)cc3cc(C(=O)O)c(=O)n1c23` (mixture of isomers) [Example 1.64, (3S)-10-(4-(2-aminocyclopropyl)piperidin-1-yl)-9-fluoro-3-methyl-5-oxo-2,3-dihydro-5H-[1,4]oxazino[2,3,4-ij]quinoline-6-carboxylic acid], the MIC was 1 to 32 µg/mL in assay [1]; greater than 32 µg/mL in assay [2]; greater than 32 µg/mL in assay [3]; 1 to 32 µg/mL in assay [4]; 1 to 32 µg/mL in assay [5] (ATCC25922, 20 h); greater than 32 µg/mL in assay [6]. Besides, the MIC in assay [7] was greater than 32 µg/mL.
Consider `C[C@H]1COc2c(N3CCC4NCCCC4C3)c(F)cc3cc(C(=O)O)c(=O)n1c23` (mixture of isomers) [Example 1.65, (3S)-9-fluoro-3-methyl-10-(octahydro-1,6-naphthyridin-6(2H)-yl)-5-oxo-2,3-dihydro-5H-[1,4]oxazino[2,3,4-ij]quinoline-6-carboxylic acid], for which the MIC was greater than 32 µg/mL in assay [1]; greater than 32 µg/mL in assay [2]; 1 to 32 µg/mL in assay [3]; 1 to 32 µg/mL in assay [4]; 1 to 32 µg/mL in assay [5] (ATCC25922, 20 h); greater than 32 µg/mL in assay [6]. In addition, the MIC in assay [7] was greater than 32 µg/mL.
With `O=C(O)c1cn(C2CC2)c2cc(N3CCNCC3)c(F)cc2c1=O` [CIP, Ciprofloxacin, reference compound], the MIC is less than 1 µg/mL in assay [1]; less than 1 µg/mL in assay [3]; less than 1 µg/mL in assay [4]; less than 1 µg/mL in assay [5] (ATCC25922, 20 h); less than 1 µg/mL in assay [7].
Consider `COC(=O)c1cc2cc(F)c(N3CC[C@@H](C4(N)CC4)C3)c3c2n(c1=O)[C@@H](C)CO3` [Example 1.7, Methyl (S)-10-((R)-3-(1-aminocyclopropyl)pyrrolidin-1-yl)-9-fluoro-3-methyl-5-oxo-2,3-dihydro-5H-[1,4]oxazino[2,3,4-ij]quinoline-6-carboxylate], for which the MIC in assay [1] is less than 1 µg/mL; in assay [2], less than 1 µg/mL; in assay [3], greater than 32 µg/mL; in assay [4], less than 1 µg/mL; in assay [5] (ATCC25922, 20 h) it was less than 1 µg/mL; in assay [6] it was 1 to 32 µg/mL (≈ 2.49 to 79.7 µM).
Regarding `C[C@H]1COc2c(N3CCC(F)(CN)C3)c(F)cc3c(CN)cc(=O)n1c23.O=C(O)C(F)(F)F` (stereo partly drawn) [Example 7.1, (3S)-7-(aminomethyl)-10-(3-(aminomethyl)-3-fluoropyrrolidin-1-yl)-9-fluoro-3-methyl-2,3-dihydro-5H-[1,4]oxazino[2,3,4-ij]quinolin-5-one trifluoroacetate salt], the MIC was 1 to 32 µg/mL in assay [2]; 1 to 32 µg/mL in assay [3]; less than 1 µg/mL in assay [5] (setting [8]); 1 to 32 µg/mL in assay [6]; 1 to 32 µg/mL in assay [7].
Turning to `C[C@H]1COc2c(N3CC[C@H](N)C3)c(F)cc3c(CN)cc(=O)n1c23` [Example 7.2, (S)-7-(aminomethyl)-10-((S)-3-aminopyrrolidin-1-yl)-9-fluoro-3-methyl-2,3-dihydro-5H-[1,4]oxazino[2,3,4-ij]quinolin-5-one], the MIC in assay [2] is greater than 32 µg/mL; in assay [3], 1 to 32 µg/mL (≈ 3.01 to 96.3 µM); in assay [5] (ATCC25922, 20 h), 1 to 32 µg/mL (≈ 3.01 to 96.3 µM); in assay [6], 1 to 32 µg/mL (≈ 3.01 to 96.3 µM); in assay [7], 1 to 32 µg/mL (≈ 3.01 to 96.3 µM).
On to `C[C@@H]1COc2c(N3CCC(F)(CN)C3)c(F)cc3c(CN)cc(=O)n1c23` (stereo partly drawn) [Example 7.3, (3R)-7-(aminomethyl)-10-(3-(aminomethyl)-3-fluoropyrrolidin-1-yl)-9-fluoro-3-methyl-2,3-dihydro-5H-[1,4]oxazino[2,3,4-ij]quinolin-5-one], for which the MIC is greater than 32 µg/mL in assay [2]; greater than 32 µg/mL in assay [3]; greater than 32 µg/mL in assay [5] (ATCC25922, 20 h); greater than 32 µg/mL in assay [6]; greater than 32 µg/mL in assay [7].
Take `C[C@@H]1COc2c(N3CCNCC3)c(F)cc3c(CN)cc(=O)n1c23` [Example 7.4, (R)-7-(aminomethyl)-9-fluoro-3-methyl-10-(piperazin-1-yl)-2,3-dihydro-5H-[1,4]oxazino[2,3,4-ij]quinolin-5-one]: the MIC in assay [2], in assay [3], in assay [5] (setting [8]), in assay [6] and in assay [7] was greater than 32 µg/mL in each case.
Regarding `NCc1cc(=O)n2c3c(c(N4CCC(F)(CN)C4)c(F)cc13)OCC2` (stereo not shown) [Example 7.5, 7-(aminomethyl)-10-(3-(aminomethyl)-3-fluoropyrrolidin-1-yl)-9-fluoro-2,3-dihydro-5H-[1,4]oxazino[2,3,4-ij]quinolin-5-one], the MIC in assay [2] is greater than 32 µg/mL; in assay [3], greater than 32 µg/mL; in assay [5] (ATCC25922, 20 h), greater than 32 µg/mL; in assay [6] it was greater than 32 µg/mL; in assay [7] it was greater than 32 µg/mL.
Regarding `N#Cc1cc(=O)n2c3c(c(N4CCC(F)(CN)C4)c(F)cc13)OCC2` (stereo not shown) [Example 7.6, 10-(3-(aminomethyl)-3-fluoropyrrolidin-1-yl)-9-fluoro-5-oxo-2,3-dihydro-5H-[1,4]oxazino[2,3,4-ij]quinoline-7-carbonitrile], the MIC in assay [2] was 1 to 32 µg/mL (≈ 2.89 to 92.4 µM); in assay [3] it was greater than 32 µg/mL; in assay [5] (ATCC25922, 20 h), greater than 32 µg/mL; in assay [6], greater than 32 µg/mL; in assay [7] it was greater than 32 µg/mL.
In the case of `NCc1cc(=O)n2c3c(c(N4CCNCC4)c(F)cc13)OCC2` [Example 7.7, 7-(aminomethyl)-9-fluoro-10-(piperazin-1-yl)-2,3-dihydro-5H-[1,4]oxazino[2,3,4-ij]quinolin-5-one], the MIC in assay [2], in assay [3], in assay [5] (setting [8]), in assay [6] and in assay [7] was greater than 32 µg/mL each time.
Take `N#Cc1cc(=O)n2c3c(c(N4CCNCC4)c(F)cc13)OCC2` [Example 7.8, 9-fluoro-5-oxo-10-(piperazin-1-yl)-2,3-dihydro-5H-[1,4]oxazino[2,3,4-ij]quinoline-7-carbonitrile]: the MIC in assay [2], in assay [3], in assay [5] (setting [8]), in assay [6] and in assay [7] was greater than 32 µg/mL in each case.
